Source: PMC6270991, “Design and Synthesis of Thiazolo[5,4-f]quinazolines as DYRK1A Inhibitors, Part I” (Molecules, 2014)
Where two headings read alike, the source gives them in different places.

Experiments:
DYRK1A = DYRK1A (Rattus norvegicus, UniProt Q63470); experiment: DYRK1A in vitro kinase assay (33P-ATP, Woodtide substrate); assay type: biochemical
Method: (§1) Buffer A: MgCl2 (10 mM), 1 mM ethylene glycol-bis(2-aminoethylether)-N,N,N',N'-tetraacetic acid (EGTA), 1 mM dithiothreitol (DTT), 25 mM Tris-HCl pH 7.5, 50 μg heparin/mL.
(§2) Controls were performed with appropriate dilutions of dimethylsulfoxide (DMSO). IC50 values were calculated from dose-response curves established by Sigma-Plots. The GSK-3, CK1, DYRK1A and CLK1 peptide substrates were obtained from Proteogenix (Oberhausbergen, France).
(§3) CDK5/p25. (Human, recombinant) was prepared as previously described. […] ATP (3000 Ci/mmol; 10 mCi/mL) in a final volume of 30 μL. After 30 min incubation at 30 °C, 25 μL aliquots of supernatant were spotted onto sheets of Whatman P81 phosphocellulose paper, and 20 s later, the filters were washed eight times (for at least 5 min each time) in a solution of 10 mL phosphoric acid/L of water. The wet filters were counted in the presence of 1 mL ACS (Amersham) scintillation fluid.

CK1δ/ε = CK1δ/ε in vitro kinase assay (33P-ATP, CK1-specific peptide substrate); assay type: biochemical, Porcine; conditions: 15 μM ATP, 30 min at 30 °C, triplicate; <50% inhibition at 10 µM reported as >10
Method: as §2, §3
CK1δ/ε. (Porcine brain, native) was assayed as described for CDK5/p25, but using the CK1-specific peptide substrate […]pSAYSITA [23].

CDK5/p25 = target: T1, CDK5/p25 (Homo sapiens, UniProt Q00535); experiment: CDK5/p25 in vitro kinase assay (33P-ATP, histone H1); assay type: biochemical; conditions: read-out: CDK5 IC50
T1 construct: made in house
Method: as §1, §2, §3

GSK-3α/β = GSK-3α/β in vitro kinase assay (33P-ATP, GS-1 peptide); assay type: biochemical, Porcine; conditions: 15 μM ATP, 30 min at 30 °C, triplicate; <50% inhibition at 10 µM reported as >10; read-out: GSK3 IC50
Method: as §1, §2, §3
GSK-3α/β. (Porcine brain, native) was assayed as described for CDK5/p25, but in buffer A and using a GSK-3 specific substrate (GS-1: […]pSEDEEE) (pS stands for phosphorylated serine).

[1] = 15 μM ATP, 30 min at 30 °C, triplicate, <50% inhibition at 10 µM reported as >10

T1 sequence (Q00535 whole entry): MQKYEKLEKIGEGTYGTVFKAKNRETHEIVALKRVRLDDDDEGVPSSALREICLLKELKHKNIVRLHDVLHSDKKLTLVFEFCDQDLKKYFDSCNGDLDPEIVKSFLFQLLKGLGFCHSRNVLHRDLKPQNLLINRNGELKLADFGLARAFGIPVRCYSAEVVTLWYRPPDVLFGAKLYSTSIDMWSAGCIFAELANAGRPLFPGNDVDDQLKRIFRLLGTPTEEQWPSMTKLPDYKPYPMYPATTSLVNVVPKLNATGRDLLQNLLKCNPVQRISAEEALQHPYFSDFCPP
T1 sequence (Q15078 99-307 partner limits assumed): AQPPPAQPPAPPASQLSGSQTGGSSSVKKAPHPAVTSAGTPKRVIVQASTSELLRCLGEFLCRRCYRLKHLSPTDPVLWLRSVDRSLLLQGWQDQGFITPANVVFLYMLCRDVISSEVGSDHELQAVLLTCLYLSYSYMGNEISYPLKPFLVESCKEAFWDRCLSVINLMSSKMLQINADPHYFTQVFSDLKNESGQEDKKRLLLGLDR

| Structure (SMILES) | IC50 (DYRK1A) | IC50 (CK1δ/ε) | IC50 (CDK5/p25) | IC50 (GSK-3α/β) | melting point | IC50 (DYRK1A; [1]) | IC50 (CDK5/p25; [1]) |
| --- | --- | --- | --- | --- | --- | --- | --- |
| N#Cc1nc2ccc3ncnc(Nc4ccc5c(c4)OCO5)c3c2s1 [Compound 8, 9-(Benzo[d][1,3]dioxol-5-ylamino)thiazolo[5,4-f]quinazoline-2-carbonitrile] | > 10 µM | > 10 µM | > 10 µM | > 10 µM | > 260 °C |  |  |
| COc1ccc(Nc2ncnc3ccc4nc(C#N)sc4c23)cc1 [Compound 7, 9-(4-Methoxyphenylamino)thiazolo[5,4-f]quinazoline-2-carbonitrile] | > 10 µM | > 10 µM | > 10 µM | > 10 µM | > 260 °C |  |  |
| COc1ccc(Nc2ncnc3ccc4nc(C(=N)NCCN5CCCCC5)sc4c23)cc1 [Compound 7b, 9-(4-Methoxyphenylamino)-N-(2-(piperidin-1-yl)ethyl)thiazolo[5,4-f]quinazoline-2-carboximidamide] | > 10 µM | > 10 µM | > 10 µM | 2.5 µM |  |  |  |
| CN(C)CCNC(=N)c1nc2ccc3ncnc(Nc4ccc5c(c4)OCO5)c3c2s1 [Compound 8d, 9-(Benzo[d][1,3]dioxol-5-ylamino)-N-(2-(dimethylamino)ethyl)thiazolo[5,4-f]quinazoline-2-carboxi-midamide] |  | > 10 µM |  | 0.25 µM |  | 1.05 µM | > 10 µM |
| COc1ccc(Nc2ncnc3ccc4nc(C(=N)NCCN5CCOCC5)sc4c23)cc1 [Compound 7a, 9-(4-Methoxyphenylamino)-N-(2-morpholinoethyl)thiazolo[5,4-f]quinazoline-2-carboximidamide] | > 10 µM | > 10 µM | > 10 µM | 1.1 µM |  |  |  |
| N#Cc1nc2ccc3ncnc(Nc4ccc(Br)cc4F)c3c2s1 [Compound 9, 9-(4-Bromo-2-fluorophenylamino)thiazolo[5,4-f]quinazoline-2-carbonitrile] | > 10 µM | > 10 µM | > 10 µM | > 10 µM | > 260 °C |  |  |
| CCN(CC)CCNC(=N)c1nc2ccc3ncnc(Nc4ccc(F)c(Cl)c4)c3c2s1 [Compound 10e, 9-(3-Chloro-4-fluorophenylamino)-N-(2-(diethylamino)ethyl)thiazolo[5,4-f]quinazoline-2-carboxi-midamide] |  | > 10 µM |  | 7 µM |  | > 10 µM | > 10 µM |
| CN(C)C(=N)c1nc2ccc3ncnc(Nc4ccc(Br)cc4F)c3c2s1 [Compound 9g] |  | > 10 µM |  | 0.6 µM |  | 0.27 µM | > 10 µM |
| N#Cc1nc2ccc3ncnc(Nc4ccc(F)c(Cl)c4)c3c2s1 [Compound 10, 9-(3-Chloro-4-fluorophenylamino)thiazolo[5,4-f]quinazoline-2-carbonitrile] | > 10 µM | > 10 µM | > 10 µM | > 10 µM | 252 °C |  |  |

Continued, in another order:

| IC50 (DYRK1A) | IC50 (CK1δ/ε) | IC50 (CDK5/p25) | IC50 (GSK-3α/β) | melting point | Structure (SMILES) | IC50 (DYRK1A; [1]) | IC50 (CDK5/p25; [1]) |
| --- | --- | --- | --- | --- | --- | --- | --- |
| > 10 µM | > 10 µM | > 10 µM | > 10 µM |  | N=C(NCc1ccccc1)c1nc2ccc3ncnc(Nc4ccc(F)c(Cl)c4)c3c2s1 [Compound 10f, N-Benzyl-9-(3-chloro-4-fluorophenylamino)thiazolo[5,4-f]quinazoline-2-carboximidamide] |  |  |
| 0.047 µM | > 10 µM | > 10 µM | 0.66 µM |  | COC(=N)c1nc2ccc3ncnc(Nc4ccc5c(c4)OCO5)c3c2s1 [Compound 8i, Methyl 9-(benzo[d][1,3]dioxol-5-ylamino)thiazolo[5,4-f]quinazoline-2-carbimidate] |  |  |
